From ChEMBL document CHEMBL1201862, “PubChem BioAssay data set” (2004)
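Where inhibition never reached the appropriate level, the endpoint shown equals the highest concentration tested. Otherwise, values were interpolated linearly from a five-concentration, 48-hour dose response in 96-well plates. The concentration for 50% growth inhibition is given as GI50.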 The source made the active and inactive calls. No stated cut-off is given here; in the data, active = GI50 up to about 1.1 µM and inactive = higher.

Experiments:
Assay in all cases: DTP human tumour cell line panel, 48 h
786-0 = test system: 786-0
A498 = test system: A498
A549 = test system: A549
ACHN = test system: ACHN
CAKI-1 = test system: CAKI-1
CCRF-CEM = test system: CCRF-CEM
COLO 205 = test system: COLO 205
DLD-1 = test system: DLD-1
DMS-114 = test system: DMS-114
DMS-273 = test system: DMS-273
EKVX = test system: EKVX
HCC 2998 = test system: HCC 2998
HCT-116 = test system: HCT-116
HCT-15 = test system: HCT-15
HL-60 = test system: HL-60
HOP-18 = test system: HOP-18
HOP-62 = test system: HOP-62
HOP-92 = test system: HOP-92
HT-29 = test system: HT-29
K562 = test system: K562
KM-20L2 = test system: KM-20L2
KM12 = test system: KM12
LOX IMVI = test system: LOX IMVI
LXFL 529 = test system: LXFL 529
M14 = test system: M14
Malme-3M = test system: Malme-3M
NCI-H226 = test system: NCI-H226
NCI-H23 = test system: NCI-H23
NCI-H460 = test system: NCI-H460
NCI-H522 = test system: NCI-H522
OVCAR-3 = test system: OVCAR-3
OVCAR-4 = test system: OVCAR-4
OVCAR-5 = test system: OVCAR-5
OVCAR-8 = test system: OVCAR-8
RPMI-8226 = test system: RPMI-8226
RXF 393 = test system: RXF 393
SF-268 = test system: SF-268
SF-295 = test system: SF-295
SF-539 = test system: SF-539
SK-MEL-28 = test system: SK-MEL-28
SK-MEL-2 = test system: SK-MEL-2
SK-MEL-5 = test system: SK-MEL-5
SK-OV-3 = test system: SK-OV-3
SNB-19 = test system: SNB-19
SNB-75 = test system: SNB-75
SNB-78 = test system: SNB-78
SW-620 = test system: SW-620
TK-10 = test system: TK-10
U-251 = test system: U-251
UACC-257 = test system: UACC-257
UO-31 = test system: UO-31
XF498 = test system: XF498
IGROV-1 = test system: IGROV-1
M19-MEL = test system: M19-MEL
MOLT-4 = test system: MOLT-4
SN12C = test system: SN12C
SR = test system: SR
UACC-62 = test system: UACC-62

Measured: GI50

O=C1OC(c2ccccc2)=N/C1=C/NC(Cc1ccc(O)cc1)C(=O)O (stereo unspecified)
inactive: 786-0 > 100 µM | A498 > 100 µM | A549 > 100 µM | ACHN > 100 µM | CAKI-1 > 100 µM | CCRF-CEM > 100 µM | COLO 205 > 100 µM | DLD-1 > 100 µM | DMS-114 > 100 µM | DMS-273 > 100 µM | EKVX > 100 µM | HCC 2998 > 100 µM | HCT-116 > 100 µM | HL-60 > 100 µM | HOP-18 36.1 µM | HOP-62 > 100 µM | HOP-92 > 100 µM | HT-29 > 100 µM | K562 > 100 µM | KM-20L2 > 100 µM | KM12 > 100 µM | LOX IMVI > 100 µM | LXFL 529 > 100 µM | M14 > 100 µM | Malme-3M > 100 µM | NCI-H226 > 100 µM | NCI-H23 > 100 µM | NCI-H460 > 100 µM | NCI-H522 > 100 µM | OVCAR-3 > 100 µM | OVCAR-4 > 100 µM | OVCAR-5 > 100 µM | OVCAR-8 > 100 µM | RPMI-8226 > 100 µM | RXF 393 > 100 µM | SF-268 > 100 µM | SF-295 > 100 µM | SF-539 > 100 µM | SK-MEL-28 > 100 µM | SK-MEL-2 > 100 µM | SK-MEL-5 > 100 µM | SK-OV-3 > 100 µM | SNB-19 > 100 µM | SNB-75 > 100 µM | SNB-78 > 100 µM | SW-620 > 100 µM | TK-10 > 100 µM | U-251 > 100 µM | UACC-257 73.5 µM | UO-31 > 100 µM | XF498 > 100 µM
> 100 µM: HCT-15

C/C(CCn1[nH]c(=O)ccc1=O)=N\OCCCc1ccccc1
inactive: 786-0 > 100 µM | A498 > 100 µM | A549 > 100 µM | ACHN > 100 µM | CAKI-1 > 100 µM | CCRF-CEM > 100 µM | DLD-1 > 100 µM | DMS-114 > 100 µM | DMS-273 > 100 µM | EKVX > 100 µM | HCC 2998 > 100 µM | HCT-116 > 100 µM | HL-60 > 100 µM | HOP-18 > 100 µM | HOP-62 > 100 µM | HOP-92 88.5 µM | HT-29 > 100 µM | IGROV-1 > 100 µM | K562 > 100 µM | KM-20L2 > 100 µM | KM12 > 100 µM | LOX IMVI > 100 µM | LXFL 529 > 100 µM | M14 > 100 µM | M19-MEL > 100 µM | MOLT-4 > 100 µM | Malme-3M > 100 µM | NCI-H226 > 100 µM | NCI-H23 > 100 µM | NCI-H460 > 100 µM | OVCAR-3 > 100 µM | OVCAR-4 > 100 µM | OVCAR-5 > 100 µM | OVCAR-8 > 100 µM | RPMI-8226 > 100 µM | RXF 393 > 100 µM | SF-268 > 100 µM | SF-295 > 100 µM | SF-539 > 100 µM | SK-MEL-28 > 100 µM | SK-MEL-2 > 100 µM | SK-MEL-5 > 100 µM | SN12C > 100 µM | SNB-19 > 100 µM | SNB-75 > 100 µM | SNB-78 > 100 µM | SR > 100 µM | SW-620 > 100 µM | TK-10 > 100 µM | UACC-257 > 100 µM | UACC-62 > 100 µM | UO-31 > 100 µM | XF498 > 100 µM
> 100 µM: HCT-15
